Results: patent US4459296A, “Piperazines and homopiperazines, N-substituted by an aromatic heterocyclic group, and their use in therapeutics” (Delalande S.A., priority 1982, dated 1984)
Where two headings read alike, the source gives them in different places.

Key:
[1] = Acute toxicity assessed intravenously in mice (method of Miller and Tainter); details: mouse, in vivo; for LD50: read-out: Acute toxicity LD 50
[2] = system: S.H.R. rats (genetically hypertensive); assay: Antihypertensive activity by oral administration to S.H.R. rats (genetically hypertensive); type: in vivo
Description: The arterial blood pressure was recorded on an APELAB-BP recorder 8002-and an electromechanical counter provided a direct reading of the heartbeat rate. The measurements were taken at 0 hour, 2 hours, 4 hours, 6 hours and 24 hours after administration of the compounds tested.
To illustrate the invention, the results obtained with some of the compounds of the invention are shown in Table II below in which the symbols AHY, ΔPA and ΔFC have the following meanings:
AHY=% of rats whose arterial blood pressure drops by a value greater than or equal to 20% of the initial value or is brought down to a value less than 150 mmHg,
ΔPA=% variation of the arterial blood pressure in all the animals tested with respect to the initial blood pressure,
ΔFC=% variation of the heart-beat rate of all the animals tested with respect to the initial rate.

[3] = iv, 200 mg/kg, i.v., read-out: Acute toxicity (mice), % at 200 mg/kg i.v. (printed "at 200 (0%)")
[4] = po, 1000 mg/kg, p.o., read-out: Acute toxicity (mice), % at 1000 (p.o.)
[5] = dose 50, 4 hours after administration
[6] = dose 50, 6 hours after administration
[7] = dose 50, 24 hours after administration

c1cc(N2CCNCC2)c2nc[nH]c2c1 [Code No. 1, (piperazino-1)-4(7) benzimidazole, tribromhydrate]
LD50 ([1]; iv): 125 mg/kg

CC(C)C(=O)N1CCN(c2cccc3[nH]cnc23)CC1 [Code No. 3]
mortality [1, 3]: 0%

O=C(c1cccs1)N1CCN(c2cccc3[nH]cnc23)CC1 [Code No. 7]
mortality [1, 3]: 0%

C=C(C)COC(=O)N1CCN(c2cccc3[nH]cnc23)CC1 [Code No. 17]
mortality [1, 3]: 0%

CSc1nnc(C(=O)N2CCN(c3cccc4[nH]cnc34)CC2)o1 [compound 12]
mortality [1, 4]: 0%

CCOC(=O)N1CCN(c2cccc3[nH]cnc23)CC1 [compound 13]
LD50 ([1]; iv): 160 mg/kg

CC(C)COC(=O)N1CCN(c2cccc3[nH]cnc23)CC1 [compound 21]
LD50 ([1]; iv): 195 mg/kg

c1ccc(SN2CCN(c3cccc4[nH]cnc34)CC2)cc1 [compound 24]
mortality [1, 4]: 0%

CCOC(=O)N1CCN(c2ncnc3nc[nH]c23)CC1 [compound 25]
mortality [1, 3]: 0%

CCOC(=O)N1CCN(c2cccc3[nH]c(C)nc23)CC1 [compound 26]
LD50 ([1]; iv): 200 mg/kg

CCOC(=O)C1CCN(c2cccc3[nH]cnc23)CC1 [compound 30]
LD50 ([1]; iv): 185 mg/kg

c1cc(N2CCNCC2)c2nn[nH]c2c1 [compound 39]
LD50 ([1]; iv): 96 mg/kg

c1cc(N2CCNCC2)c2cc[nH]c2c1 [compound 41]
LD50 ([1]; iv): 35 mg/kg

c1cc(N2CCNCC2)c2[nH]ccc2c1 [compound 42]
LD50 ([1]; iv): 70 mg/kg

(benzyloxycarbonyl-4 piperazino-1)-4 indole [Code No. 40]
AHY (% of rats whose arterial blood pressure drops by ≥20% of initial value or to <150 mmHg) [2, 5]: 86%
ΔFC (% variation of the heart-beat rate vs initial) [2, 5]: -11%
ΔPA (% variation of the arterial blood pressure vs initial) [2, 5]: -23%
AHY (% of rats whose arterial blood pressure drops by ≥20% of initial value or to <150 mmHg) [2, 6]: 86%
ΔFC (% variation of the heart-beat rate vs initial) [2, 6]: -8%
ΔPA (% variation of the arterial blood pressure vs initial) [2, 6]: -23%
AHY (% of rats whose arterial blood pressure drops by ≥20% of initial value or to <150 mmHg) [2, 7]: 0%
ΔFC (% variation of the heart-beat rate vs initial) [2, 7]: -9%
ΔPA (% variation of the arterial blood pressure vs initial) [2, 7]: -2%

(carbethoxy-4 piperazino-1)-4(7) benzimidazole, maleate [Code No. 13]
AHY (% of rats whose arterial blood pressure drops by ≥20% of initial value or to <150 mmHg) [2, 6]: 71%
ΔFC (% variation of the heart-beat rate vs initial) [2, 6]: 0%
ΔPA (% variation of the arterial blood pressure vs initial) [2, 6]: -19%
AHY (% of rats whose arterial blood pressure drops by ≥20% of initial value or to <150 mmHg) [2, 7]: 28%
ΔFC (% variation of the heart-beat rate vs initial) [2, 7]: -7%
ΔPA (% variation of the arterial blood pressure vs initial) [2, 7]: -9%

(carbethoxy-4 piperazino-1)-6 purine [Code No. 25]
AHY (% of rats whose arterial blood pressure drops by ≥20% of initial value or to <150 mmHg) [2, 5]: 14%
ΔFC (% variation of the heart-beat rate vs initial) [2, 5]: -5%
ΔPA (% variation of the arterial blood pressure vs initial) [2, 5]: -8%
AHY (% of rats whose arterial blood pressure drops by ≥20% of initial value or to <150 mmHg) [2, 6]: 57%
ΔFC (% variation of the heart-beat rate vs initial) [2, 6]: +1%
ΔPA (% variation of the arterial blood pressure vs initial) [2, 6]: -14%
AHY (% of rats whose arterial blood pressure drops by ≥20% of initial value or to <150 mmHg) [2, 7]: 43%
ΔFC (% variation of the heart-beat rate vs initial) [2, 7]: -4%
ΔPA (% variation of the arterial blood pressure vs initial) [2, 7]: -9%

(piperazino-4 (7) benzotriazole, dihydrochloride [Code No. 39]
AHY (% of rats whose arterial blood pressure drops by ≥20% of initial value or to <150 mmHg) [2, 5]: 33%
ΔPA (% variation of the arterial blood pressure vs initial) [2, 5]: -15%
AHY (% of rats whose arterial blood pressure drops by ≥20% of initial value or to <150 mmHg) [2, 6]: 67%
ΔFC (% variation of the heart-beat rate vs initial) [2, 6]: +3%
ΔPA (% variation of the arterial blood pressure vs initial) [2, 6]: -21%
ΔFC (% variation of the heart-beat rate vs initial) [2, 7]: 0%
